How the values were obtained:
APP695‐HiBiT = biological target: T1, APP695‐HiBiT (Homo sapiens, UniProt P05067+Q14444); assay: APP695-HiBiT luminescence assay in HEK293 cells; assay type: cell-based
T1 construct: expressed in transfected cells; host or cells: HEK293, lentiviral transduction, hygromycin-selected single clones (#3, #9)
Excerpt: We previously reported CAPRIN1‐targeted molecular degraders that bind to CAPRIN1 and F‐box protein 42 (FBXO42), promoting FBXO42‐mediated proteasomal degradation of small ubiquitin‐related modifier 1 (SUMO1), an oncoprotein, in human cancers. CAPRIN1 is a neuronal RNA‐binding protein involved in neuronal development and neurodegeneration. CAPRIN1 was reported to be a binding partner of APP [28]. Therefore, we thought to investigate whether CAPRIN1‐targeted degraders could promote APP degradation in APP‐expressing cell models. To establish screening models, we tagged wild‐type APP695 (APP695), the predominant neuronal isoform, with the small HiBiT tag (APP695‐HiBiT) and expressed APP695‐HiBiT in HEK293 cells. Cell lysates were analyzed using a luminescence‐based assay of HiBiT‐tagged protein [30], identifying clone #3 and #9 with robust APP695‐HiBiT expression (Figure S1A). Western blotting and ELISA confirmed intracellular expression of APP695 and extracellular release of Aβ42 in these clones (Figure S1B,C).
HEK293 cells were purchased from the American Type Culture Collection (ATCC). […] Once expanded, clones were analyzed by ELISA for amyloid beta 42 (Aβ42), western blot for APP expression, and Hibit‐lytic assay (Promega). […]

[1] = tested on: APP trafficking through the endosomal‐lysosomal pathway; assay: Confocal colocalization of APP / CAPRIN1 with organelle markers; assay type: cell-based, human; conditions: for APP–LAMP1 colocalization: AD iPSC-Ns
Method: Cells were grown on glass cover slips coated with 1% Matrigel and treated with drugs. Cells were washed, fixed, permeabilized, blocked, and incubated in primary antibodies diluted in blocking solution (1% v/v BSA solution/5% Goat serum in PBS containing 0.1% Triton X‐100) overnight at 4°C. The cells were washed three times with PBS and incubated in secondary antibodies in a blocking solution for 1 h at room temperature, then washed with PBS, followed by HOECHST staining (Invitrogen) for 5 min, and washed with PBS. The glass coverslips were put on a slide‐in mounting medium ([…]), and the edges were sealed with coverslip sealant (BIOTIUM). Image data were captured and processed with a confocal microscope system (Olympus Fluoview FV1000 or Leica DIVE) and the ImageJ program. For 3D organoids staining, organoids were fixed in 10% formalin overnight at room temperature, followed by incubation in 30% sucrose solution overnight at room temperature, embedded in optimal cutting temperature compound (OCT, FisherScientific), and kept at ‐80°C overnight. Frozen samples were sectioned at 10 µm using a cryostat (Leica) and mounted on microscope slides (Fisherbrand superfrost plus, FisherScientific). Before immunolabeling, sections were rinsed in PBS for 5 min, permeabilized for 30 min in PBS containing 0.3% Triton‐X 100, blocked for 1 h in PBS containing 5% BSA and 0.1% Triton‐X 100, and incubated with primary antibodies diluted in the same blocking solution. Then, secondary staining, mounting, and imaging were followed.
ImageJ (Fiji) program (NIH, Bethesda, MD, USA) was used o analyze images. Pearson's correlation coefficients were calculated with the JACoP plugin from two channels (BIOP). For colocalization/trafficking analysis with organelles in iPSC‐Ns, HEK293 cells, and 3D organoids, APP or CAPRIN1 with organelles signals were segmented using a trainable weka segmentation plugin in Fiji as previously described. Colocalized areas were calculated in the image calculator tool ([…] function) to get an overlayed area for the segmented signals, followed by using the analyze particle tool in Fiji to determine by > 1‐pixel overlapping of the segmented signal. To determine the fluorescence intensity, the corrected total cell fluorescence (CTCF) was used using the formula: CTCF = Integrated Density—(Area of selected cell x Mean fluorescence of background readings), as described previously. Bright‐field images of immunoperoxidase‐stained and Thioflavin S‐stained brain sections were exported as 16‐bit RGB TIFF files and analyzed using ImageJ (Fiji), following previously established protocols. To isolate the DAB signal for quantification, color deconvolution was performed using the “H DAB” setting in the Color Deconvolution plugin in ImageJ. The resulting “Colour_2” image, corresponding to the DAB chromogen, was converted to 8‐bit grayscale for further analysis. Manual thresholding was applied to the DAB channel using the threshold adjustment tool in ImageJ. […] Regions of interest (ROIs), specifically the subiculum, hippocampus, and cortex, were manually delineated based on anatomical landmarks and saved using the ROI Manager. For each ROI, the DAB‐positive area was quantified using the Analyze Particles plugin with default particle size settings. The percentage of DAB‐positive area was calculated as the ratio of the DAB‐positive area to the total area of each ROI.

T1 sequence (P05067 18-695 isoform P05067-4 limits assumed): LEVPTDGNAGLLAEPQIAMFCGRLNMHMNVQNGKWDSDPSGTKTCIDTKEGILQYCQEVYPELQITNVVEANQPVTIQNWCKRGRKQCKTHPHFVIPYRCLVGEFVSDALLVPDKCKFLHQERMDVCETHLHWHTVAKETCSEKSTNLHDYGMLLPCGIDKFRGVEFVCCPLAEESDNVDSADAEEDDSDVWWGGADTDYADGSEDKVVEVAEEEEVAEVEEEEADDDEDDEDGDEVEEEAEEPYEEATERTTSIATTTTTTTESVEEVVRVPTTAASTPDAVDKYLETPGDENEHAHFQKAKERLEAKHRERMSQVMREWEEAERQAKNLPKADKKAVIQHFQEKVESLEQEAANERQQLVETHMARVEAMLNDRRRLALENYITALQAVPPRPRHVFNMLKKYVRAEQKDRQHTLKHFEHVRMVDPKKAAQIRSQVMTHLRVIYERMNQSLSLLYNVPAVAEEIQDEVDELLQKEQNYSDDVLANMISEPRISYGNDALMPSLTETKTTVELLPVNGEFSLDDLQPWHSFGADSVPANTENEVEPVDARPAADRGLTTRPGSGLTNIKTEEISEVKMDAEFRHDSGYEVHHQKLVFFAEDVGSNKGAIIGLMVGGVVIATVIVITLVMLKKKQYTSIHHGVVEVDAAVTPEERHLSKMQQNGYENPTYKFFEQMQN
T1 sequence (Q14444 2-709 limits assumed): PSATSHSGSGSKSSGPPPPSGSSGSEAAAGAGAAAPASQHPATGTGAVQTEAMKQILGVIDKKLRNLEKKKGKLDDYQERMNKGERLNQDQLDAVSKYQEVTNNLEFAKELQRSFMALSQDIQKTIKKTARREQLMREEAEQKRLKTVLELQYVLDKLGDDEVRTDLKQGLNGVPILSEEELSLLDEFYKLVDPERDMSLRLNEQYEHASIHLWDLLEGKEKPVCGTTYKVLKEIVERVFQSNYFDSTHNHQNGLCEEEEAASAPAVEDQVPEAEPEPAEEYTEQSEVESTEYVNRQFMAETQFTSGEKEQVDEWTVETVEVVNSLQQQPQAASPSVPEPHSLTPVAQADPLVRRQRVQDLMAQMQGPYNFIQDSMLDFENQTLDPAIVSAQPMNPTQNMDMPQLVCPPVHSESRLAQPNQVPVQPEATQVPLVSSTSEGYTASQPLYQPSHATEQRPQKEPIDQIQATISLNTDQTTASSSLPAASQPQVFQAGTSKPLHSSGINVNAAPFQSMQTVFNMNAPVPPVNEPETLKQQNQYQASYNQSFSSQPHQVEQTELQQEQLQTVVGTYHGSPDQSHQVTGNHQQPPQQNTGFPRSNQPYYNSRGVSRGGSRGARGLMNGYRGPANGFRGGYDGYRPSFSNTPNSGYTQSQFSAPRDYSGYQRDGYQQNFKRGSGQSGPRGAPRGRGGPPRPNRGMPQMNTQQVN

Compound | APP695-HiBiT levels in library screen (APP695‐HiBiT; 10 µM, 24 h, APP695-HiBiT clones, vs DMSO) | APP–LAMP1 colocalization ([1]; 10 µM, 24 h) | APP colocalization with EEA1, Rab7 and LAMP1 ([1]; AG27606-Ns, 10 µM, 0, 3 or 7 h) | CAPRIN1 colocalization with Rab7 and LAMP1 ([1]; AG27606-Ns, 10 µM, 0, 3 or 7 h) | APP695-HiBiT levels, dose and time course (APP695‐HiBiT; HEK-APP695-HiBiT cells) | Colocalization of APP and CAPRIN1 with GGA1 ([1]; AG27606 neurons, 10 µM, 24 h) | Colocalization of APP and CAPRIN1 with SorLA ([1]; AG27606 neurons, 10 µM, 24 h)
N#Cc1cccc(NC(=O)Nc2nc3ccc(C(=O)N4CCOCC4)cc3s2)c1 [compound 0043] | more effective | increased APP–LAMP1 colocalization | significantly increased APP colocalization with all three markers | increase its colocalization with both markers |  |  | 
COc1cccc(NC(=O)Nc2nc3ccc(C(=O)N4CCOCC4)cc3s2)c1 [compound 0152] |  | increased APP–LAMP1 colocalization |  |  | dose‐ and time‐dependent reduction in APP695‐HiBiT levels | enhanced the colocalization of both APP and CAPRIN1 with GGA1 | reduced the colocalization of both APP and CAPRIN1 with SorLA

From paper PMC13534789, “Molecular Glue Degraders Enhance CAPRIN1‐Dependent Lysosomal Degradation of APP and Reduce Amyloid β in Alzheimer's Disease” (Advanced Science, 2026)
